# From US10160791B2, “Protamine in treatment of neuronal injuries” (UNIVERSITY OF HELSINKI, priority 2013, dated 2018)
# “Also recorded” adds a separate entry of the source.
# How the values were obtained:
# [1] = system: embryonic rat hippocampal neurons; assay: Neurite outgrowth assay on aggrecan-coated substrate, hippocampal neurons; format: cell-based; conditions: E17 rat hippocampal neurons, plates precoated with aggrecan 10 μg/ml
# Experimental: (§1) Cortical or hippocampal neurons from E17 rat embryos were plated at 50,000 cells/cm2 on plastic cell culture plates. Plates were precoated with aggrecan or IgG (10 μg/ml). Protamine, or derived peptides, were precoated together with aggrecan or added to culture medium when plating neurons. Cells were cultured for 1.5-3.5 days and after that images of cell cultures were taken using phase contrast microscope with ×20 objective. Neurite length was quantified using ImagePro software. Mouse neurons were immunostained with anti-tubulin βIII antibodies and imaged using fluorescent microscope.
# [2] = system: embryonic rat cortical neurons; assay: Neurite outgrowth assay on aggrecan-coated substrate, cortical neurons; format: cell-based; conditions: E17 rat cortical neurons, plates precoated with aggrecan 10 μg/ml, cultured 1.5-3.5 days
# Experimental: as §1
# wild type RPTPσ = assay: RPTPσ binding assay (ELISA, biotinylated aggrecan), wild type RPTPσ; set-up: species or system mouse; conditions: FIG. 4
# Text: (§2) Protamine (salmon) and protamine sulphate (herring) were from Sigma, protamine sulphate (salmon) was from Leo Pharma. Bovine aggrecan was from Sigma. The DNA sequence (the template cDNA clone MGC:63375 IMAGE:6834684) of the CSPG-binding domain of mouse RPTPσ was used for Fc-tagged RPTPσ protein production. Peptides derived from the protamine sequence were custom synthesised by CASLO ApS (Denmark).
# (§3) The Fc-tagged extracellular domain of RPTPσ was immobilized on protein G-coated plates. Binding of biotinylated aggrecan to RPTPσ was quantified via colorimetric assay using streptavidin-conjugated horse radish peroxidise. Experiments were done by using protein G coated 96 well plates (Pierce, prod. #15133). Wells were first washed briefly with PBS, 0.05% Tween-20 solution. RPTPσ wild type and mutant FC-fusion proteins were diluted into 2 μg/ml solution in buffer containing PBS, 1% BSA, 0.05% Tween-20. 150 μl of protein solution was added into the wells and plates were left for shaking at +RT for 1 hour. […] Detection of bound Streptavidin-Peroxidase Polymer was done by adding 200 μl of OPD (o-Phenylenediamine dihydrochloride, SIGMA P9187) substrate into the wells and was measured by reading the absorbance at 450 nm (A450).
# (§4) Aggrecan binding to RPTPσ was assessed via ELISA using Fc-tagged RPTPσ and biotinylated aggrecan. Binding was quantified using streptavidin-bound horse radish peroxidase. […]
# [3] = system: Mutant RPTPσ, with a defective CSPG-binding site; assay: RPTPσ binding assay (ELISA, biotinylated aggrecan), mutant RPTPσ; set-up: species or system mouse; conditions: negative control, biotinylated aggrecan 5 μg/ml, protamine 0-5 μg/ml
# Text: as §2, §3, §4
# [4] = system: mice with spinal cord hemisection; assay: Vertical screen test after spinal cord hemisection; format: in vivo, mouse; conditions: intracerebroventricular injection, compared to vehicle
# Experimental: (§5) Animals were anaesthetized with a intraperitoneal mixture of Ketaminol (2 mg/20 g body weight, Intervet) and Rompun (0.25 mg/20 g body weight, Bayer). After laminectomy at C5 vertebral level, the dura was carefully removed. The right cervical spinal hemicord was transected with a 25G syringe needle from midline dorsal vessel to the lateral side. Bleeding was controlled with haemostatic gelatin sponge. Muscle and skin were sutured with 6-0 monocryl. 30 min before surgery and during following 3 days mice were treated with antibiotic Borgal (30 mg/kg, Intervet). Body weight and bladder expression were checked for 7 days, and animal received Rimadil (5 mg/kg, Pfizer) and Rapidexon (0.2 mg/kg, Evrovet) to control pain and inflammatory swelling until they stop to lose body weight.
# Vertical screen (VS). The mouse was placed on a very brink of horizontal wire screen (25×22 cm, diameter of wires 2 mm spaced at 1 cm) faced to edge. Immediately after that the screen was turned vertically to place mouse to upside down position at the lower edge. The time that animal was needed to climb to the upper edge were measured during 1 min. This test was repeated every second week starting from 1st week after surgery.
# (§6) Statistic. Data obtained from Vertical screen test were analyzed by one-way ANOVA followed by post-hoc Newman-Keuls test for detection of group differences. […]
# [5] = system: mice with spinal cord hemisection; assay: Cylinder test of limb use asymmetry after spinal cord hemisection; format: in vivo, mouse; conditions: intracerebroventricular injection, compared to vehicle
# Experimental: as §5
# Cylinder Test of Limb Use Asymmetry. Mouse was placed to glass cylinder 10 cm in diameter and 14 cm high. Mirror was position at the angle behind of cylinder for better observation. […] The number of rearing in which mouse used right (impaired), left or both limbs for support against the wall were measured. Paw preference were calculated as ratio of total number of left limb use (left+both) to total number of right (impaired) limb use (right+both).
# as §6
sequence,measurement,setting,value
SRPVRRRRRPRVS [Peptide 3],neuronal attachment and neurite growth on the aggrecan-coated substrate,[1],"overcomes the inhibitory action of aggrecan, promoting neuronal attachment and neurite growth"
"MPRRRRSSSRPVRRRRRPRVSRRRRRRGGRRRR (Genus/Species name of salmon disclosed by SEQ ID NO 1 is not known) [Protamine, small arginine-rich nuclear protein, from Sigma]",neuronal attachment and neurite growth on the aggrecan-coated substrate,[2],"overcomes the inhibitory action of aggrecan, promoting neuronal attachment and neurite growth; also recorded: overcame this inhibitory action of aggrecan, promoting neuronal attachment and neurite growth; also recorded: active as both the free protein and as sulphate salt"
same,amount of aggrecan binding to RPTPσ (in words),wild type RPTPσ,increases the amount of aggrecan binding to RPTPσ
same,aggrecan binding to mutant RPTPσ,[3],not affected
VSRRRRRRGGRRRR [Peptide 12],neuronal attachment and neurite growth on the aggrecan-coated substrate,[2],"overcome the inhibitory action of aggrecan, promoting neuronal attachment and neurite growth; also recorded: displayed activity"
same,time used in the vertical climbing test (vertical screen),[4],improves functional recovery
same,time used in the vertical climbing test (vertical screen),[4]; listed as protamine peptide 12,becomes shortened compared to injection of the vehicle only
same,limb usage on the affected side (cylinder test),[5],improves functional recovery
same,limb usage on the affected side (cylinder test),[5]; listed as protamine peptide 12,enhances limb usage on the affected side compared to the vehicle
SRPVRRRRRPRVSRRRRRRGGRRRR [Peptide 2],neuronal attachment and neurite growth on the aggrecan-coated substrate,[2],"overcome the inhibitory action of aggrecan, promoting neuronal attachment and neurite growth; also recorded: displayed activity"
